Several values for one entry are separate records, joined by “and”; a condition that tells them apart may be missing. Equal values may be shown once. Activity calls are given as the source filed them. The rule behind the calls is not given here.
Target: intestinal alkaline phosphatase (Mus musculus)
Assay: mouse IAP inhibition by analogs – biochemical, luminescence, set 2, SAR follow-up (AID 588647)
Settings: purified mouse IAP, luminescent substrate read-out

IC50 | SMILES
> 100 µM (inactive) | O=C(N/N=C/c1c(F)cccc1Cl)c1ccc(O)cc1O
> 100 µM (inactive) | Cc1ccc(NC(=O)CCNS(=O)(=O)c2ccc3c(c2)oc(=O)n3C)cc1C
> 100 µM (inactive) | COc1ccc(CNC(=O)CCNS(=O)(=O)c2ccc3ccccc3c2)c(OC)c1
> 100 µM (inactive) | O=C(N/N=C/c1c(F)cccc1F)c1ccc(O)cc1
1.8 µM and 0.73 µM | COc1cccc(CNC(=O)CNS(=O)(=O)c2ccc3[nH]c(=O)oc3c2)c1
> 100 µM (inactive) | Cc1ccc(C)c(NC(=O)CCNS(=O)(=O)c2ccc3c(c2)CCC3)c1
88 µM | O=C(CCNS(=O)(=O)c1ccc2[nH]c(=O)oc2c1)NCc1ccc(Cl)cc1
> 100 µM (inactive) | O=C(N/N=C/c1ccccc1F)c1ccc(O)cc1O
> 100 µM (inactive) | COc1ccc(OC)c(NC(=O)CCNS(=O)(=O)c2ccc3c(c2)oc(=O)n3C)c1
2 µM | N#Cc1cccc(CNC(=O)CCNS(=O)(=O)c2ccc3[nH]c(=O)oc3c2)c1
> 100 µM (inactive) | COc1cccc(C(=O)N/N=C/c2ccccc2F)c1
> 100 µM (inactive) | COc1ccc(CNC(=O)CNS(=O)(=O)c2ccc3[nH]c(=O)oc3c2)c(OC)c1
> 100 µM (inactive) | CCOc1cc(C(=O)N/N=C/c2c(F)cccc2Cl)cc(OCC)c1OCC
> 100 µM (inactive) | COc1ccc(/C=N/NC(=O)c2cc(O)c(O)c(O)c2)cc1OC
> 100 µM (inactive) | CCc1ccc(NC(=O)CCNS(=O)(=O)c2ccc3c(c2)oc(=O)n3C)cc1
84 µM | Cc1ccc(NC(=O)CCNS(=O)(=O)c2ccc3[nH]c(=O)oc3c2)cc1C
> 100 µM (inactive) | O=c1[nH]c2ccc(S(=O)(=O)NCc3ccc4c(c3)OCO4)cc2o1
> 100 µM (inactive) | O=C(N/N=C/c1c(F)cccc1Cl)c1ccc(O)cc1
> 100 µM (inactive) | CC(=NNC(=O)c1ccccc1OCCOc1ccccc1)c1ccccc1F
